Data on 3 compounds can be found in patent publication US9249345B2, “Concentrate for medical solutions, production thereof and use thereof in dialysis” (FRESENIUS MEDICAL CARE DEUTSCHLAND GMBH, priority 2010, dated 2016).

Holding throughout (format): physicochemical
A short description of data set [1]: Water uptake into concentrate container without gas barrier, Example 6. The following applies: 40° C., 75% relative humidity; for water uptake into the concentrate container (water content in percent by weight): after about 26 weeks; for water uptake: period of 6 months. The protocol:
The water uptake into a concentrate container without a gas barrier, comprising MgCl2×6H2O or alkaline magnesium carbonate, 4MgCO3×Mg(OH)2×5H2O respectively, was compared. The concentrate containers were each exposed in the climate chamber to 40° C. and 75% relative humidity for several weeks. […] The time in weeks is plotted on the abscissa. The water content in percent by weight is plotted on the ordinate.

Data set [2] is described as follows: Storage of MgCl2×6H2O in gas-permeable concentrate container in climate chamber, Example 5. Particulars: 40° C., 75% relative humidity, 6 months. The protocol: MgCl2×6H2O was stored in the climate chamber at 40° C. and 75% relative humidity in a gas-permeable concentrate container.
Data set [3] can be described thus: Caking behaviour of concentrates in containers stored in climate chamber, Examples 2-4. Particulars: Example 4; 40° C., 75% relative humidity, 6 months. From the text: The container comprised of film material without appreciable gas-barrier properties is depicted on the left of FIG. 1. […] The container shown on the right of FIG. 1 comprised the same materials. Additionally, said film comprised a gas-barrier layer of silicon oxide. The gas permeability of said film was below 20 cm^3/(m^2·d·bar) for CO2, as measured in accordance with DIN 53380—part 4. […] 1.
The stability of a concentrate comprised of components according to the invention versus conventional components was tested. […] It was assumed that the crystal water of the glucose in conjunction with sodium chloride caused caking.

In the case of “alkaline magnesium carbonate, 4MgCO3×Mg(OH)2×5H2O”, in data set [1], the “water uptake into the concentrate container (water content in percent by weight)” value is on record as “no water uptake” and the water uptake result is reported as “did not absorb any water”.
As for `O.O.O.O.O.O.[Cl-].[Cl-].[Mg+2]` [MgCl2×6H2O, magnesium chloride with crystal water, MgCl2×6H2O], in data set [2], the “physical state after storage” value is reported as “liquefied”. In data set [1], the “water uptake into the concentrate container (water content in percent by weight)” value is approximately 24% and the water uptake result was “significant water uptake”.
With `OC[C@H]1OC(O)[C@H](O)[C@@H](O)[C@@H]1O` (stereo partly drawn) [anhydrous glucose], the caking entry in data set [3] is listed as “does not promote caking”.
